Data set [1] is described as follows: Oil properties: Log P. Type of data set: physicochemical. The settings on record: oil ingredient.
A short description of data set [2]: Oil properties: volatility. Format: physicochemical. To be noted: oil ingredient.

Molecules are shown by their SMILES.

In general, Log P refers to a log measure of how a compound divides between an organic and an aqueous phase. A high value points to a more lipophilic compound. For the compound `C=CC(C)CCCC(C)(C)O` (centres unmarked) [Dihydromycenol], the lipophilicity (Log P) in data set [1] was found to be 3.47. The same compound yielded a Volatility in data set [2] of 1391 µg/L.
Take `C/C=C/C(=O)C1C(C)C=CCC1(C)C` (centres unmarked) [Delta-Damascone]: the “Log P” value in data set [1] is recorded as 4.16. In data set [2], this compound yielded a Volatility of 371 µg/L.
As to `CC(=O)/C=C/C1=C(C)CCCC1(C)C` [β-Ionone], in data set [1], the lipophilicity (Log P) turned out to be 3.012.
By logP is commonly meant a log measure of how a compound divides between an organic and an aqueous phase. Read a high logP as higher lipophilicity. In data set [1], `OCCc1ccccc1` [Phenylethyl Alcohol] registered a log partition coefficient (logP) of 1.52.
As to `C=C(C)[C@H]1CC=C(C)CC1` [Limonene], the “Log P” value in data set [1] was 4.38. This compound had a Volatility in data set [2] of 14183 µg/L.

The values above are taken from patent US9849435B2, “Maleic anhydride polymer-stabilized microcapsules” (Firmenich SA, priority 2013, dated 2017).
